Experiments:
serotonin transporter = target: T1, serotonin transporter (Rattus norvegicus, UniProt P31652); assay: serotonin transporter affinity, 3H-paroxetine binding, frontal cortical membranes; conditions: for Ki: 3H-paroxetine 0.1 nM, read-out: ST (Ki, nM,)
T1 construct: frontal cortical membranes prepared from male Sprague-Dawley rats; from tissue; host or cells: rat frontal cortex membranes
Method: A protocol similar to that used by Cheetham et al., Neuropharmacol. […] Briefly, frontal cortical membranes prepared from male Sprague-Dawley rats were incubated with ^3H-paroxetine (0.1 nM) for 60 minutes at 25° C. […] All reactions are terminated by the addition of ice cold Tris buffer followed by rapid filtration using a Tom Tech filtration device to separate bound from free ^3H-paroxetine.

[1] = target: T2, human 5-HT1A receptor subtype (5-HT1A CHO cells) (Homo sapiens, UniProt P08908); assay: forskolin-stimulated cAMP formation (cAMP SPA assay); type: cell-based; conditions: forskolin 1 uM
T2 construct: expressed in transfected cells
T2 sequence (P08908 1-422): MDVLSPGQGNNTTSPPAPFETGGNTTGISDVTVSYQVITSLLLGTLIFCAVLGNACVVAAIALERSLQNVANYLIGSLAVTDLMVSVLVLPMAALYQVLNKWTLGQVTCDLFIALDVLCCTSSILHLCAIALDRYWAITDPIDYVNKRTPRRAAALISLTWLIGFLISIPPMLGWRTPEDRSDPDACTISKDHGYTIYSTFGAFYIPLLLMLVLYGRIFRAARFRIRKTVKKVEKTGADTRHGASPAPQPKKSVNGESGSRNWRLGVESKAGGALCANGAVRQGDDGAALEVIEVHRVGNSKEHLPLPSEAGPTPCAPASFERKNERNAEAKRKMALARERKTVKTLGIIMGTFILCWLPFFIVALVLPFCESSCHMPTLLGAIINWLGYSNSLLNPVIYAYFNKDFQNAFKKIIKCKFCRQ
Method: (§1) The PCR cloning of the human 5-HT1A receptor subtype from a human genomic library has been described previously Chanda et al., Mol. Pharmacol., 43:516 (1993). A stable Chinese hamster ovary cell line expressing the human 5-HT1A receptor subtype (5-HT1A.CH2O cells) was employed throughout this study. Cells were maintained in DMEM supplemented with 10% fetal calf serum, non-essential amino acids and penicillin/streptomycin.
The following assays were performed by incubating the cells with DMEM containing 25 mM HEPES, 5 mM theophylline and 10 μM pargyline for a period of 20 minutes at 37° C. Functional activity was assessed by treating the cells with forskolin (1 uM final concentration) followed immediately by test compound (6 concentrations) for an additional 10 minutes at 37° C. In separate experiments, 6 concentrations of antagonist were preincubated for 20 minutes prior to the addition of 10 nM 8-OH-DPAT and forskolin. The reaction was terminated by removal of the media and addition of 0.5 ml ice cold assay buffer. Plates were stored at −20° C. prior to assessment of cAMP formation by a cAMP SPA assay (Amersham).

[2] = target: T3, human 5-HT1A receptor subtype (Homo sapiens, UniProt P08908); assay: 5-HT1A receptor binding, [3H]8-OH-DPAT, CHO cell membranes; conditions: for Ki: [3H]8-OH-DPAT 1.5 nM; for 5-HT1A, value given as %: concentration not given
T3 construct: expressed in transfected cells
T3 sequence (P08908 1-422): T2 sequence (P08908 1-422)
Method: as §1
Cells were grown to 95-100% confluency as a monolayer before membranes were harvested for binding studies. Cells were gently scraped from the culture plates, transferred to centrifuge tubes, and washed twice by centrifugation (2000 rpm for 10 min., 4° C.) in buffer (50 mM Tris; pH 7.5). The resulting pellets were aliquoted and placed at −80° C. On the day of assay, the cells were thawed on ice, and resuspended in buffer. Studies were conducted using [^3H]8-OH-DPAT as the radioligand. The binding assay was performed in 96 well microtiter plates in a final total volume of 250 μL of buffer. Competition experiments were performed by using 7 concentrations of unlabelled drug and a final ligand concentration of 1.5 nM. Non-specific binding was determined in the presence of 10 μM 5HT. Saturation analysis was conducted by using [^3H]8-OH-DPAT at concentaritions ranging from 0.3-30 nm Following a 30 minute incubation at room temperature, the reaction was terminated by the addition of ice cold buffer and rapid filtration using a M-96 Brandel Cell Harvester (Gaithersburg, Md.) through a GF/B filter presoaked for 30 minutes in 0.5% polyethylenenimine.

T1 sequence (P31652 whole entry): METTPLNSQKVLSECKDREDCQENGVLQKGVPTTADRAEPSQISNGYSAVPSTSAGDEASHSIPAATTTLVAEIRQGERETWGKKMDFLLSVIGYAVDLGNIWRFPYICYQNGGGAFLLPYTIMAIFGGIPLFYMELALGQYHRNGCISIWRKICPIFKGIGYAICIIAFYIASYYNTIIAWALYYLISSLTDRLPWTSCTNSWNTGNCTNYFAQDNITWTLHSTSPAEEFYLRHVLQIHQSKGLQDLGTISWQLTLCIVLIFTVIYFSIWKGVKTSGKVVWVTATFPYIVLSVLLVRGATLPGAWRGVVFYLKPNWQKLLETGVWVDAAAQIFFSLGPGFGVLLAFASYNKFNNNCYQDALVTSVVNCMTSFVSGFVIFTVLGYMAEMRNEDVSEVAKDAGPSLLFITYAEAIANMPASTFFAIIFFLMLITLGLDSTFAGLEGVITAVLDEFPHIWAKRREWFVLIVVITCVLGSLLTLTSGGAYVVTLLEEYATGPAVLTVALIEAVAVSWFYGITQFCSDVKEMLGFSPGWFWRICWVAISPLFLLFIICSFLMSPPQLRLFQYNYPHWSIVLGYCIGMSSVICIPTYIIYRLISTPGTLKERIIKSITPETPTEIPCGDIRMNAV

SMILES	Ki (serotonin transporter)	Ki [2]	also measured
N#Cc1ccc2[nH]cc([C@H]3CC[C@H](N4CCN(c5cccc6[nH]ccc56)CC4)CC3)c2c1 [Example 7b, 3-{4-[(1,4-trans)-4-(1H-Indol-4-yl)-piperazinyl-1-yl]cyclohexyl}-1H-indole-5-carbonitrile]	4.19 nM	–	Emax [1]: 83%
c1cc(N2CCN([C@H]3CC[C@@H](c4c[nH]c5ncccc54)CC3)CC2)c2cc[nH]c2c1 [Example 10a, 3-{(1,4-cis)-4-[4-(1H-Indole-4-yl)-piperazin-1-yl]-cyclohexyl}-1H-pyrrolo[2,3-b]pyridine]	–	15.8 nM	Emax [1]: 0%
CC(C)n1cc([C@H]2CC[C@@H](N3CCN(c4cccc5[nH]ccc45)CC3)CC2)c2cc(C#N)ccc21 [Example 15a, 3-{(1,4-cis)-4-[4-(1H-indol-4-yl)-piperazin-1-yl]-cyclohexyl}-1-isopropyl-1H-indole-5-carbonitrile]	28 nM	–	–
CC(C)n1cc([C@H]2CC[C@H](N3CCN(c4cccc5[nH]ccc45)CC3)CC2)c2cc(C#N)ccc21 [Example 15b, 3-{(1,4-trans)-4-[4-(1H-indol-4-yl)-piperazin-1-yl]-cyclohexyl}-1-isopropyl-1H-indole-5-carbonitrile]	–	–	ST, value given as % (serotonin transporter; concentration not given): 16%
N#Cc1ccc2c(c1)c([C@H]1CC[C@@H](N3CCN(c4cccc5[nH]ccc45)CC3)CC1)cn2Cc1ccccc1 [Example 16a, 1-Benzyl-3-{(1,4-cis)-4-[4-(1H-indol-4-yl)-piperazin-1-yl]-cyclohexyl}-1H-indole-5-carbonitrile]	29 nM	–	5-HT1A, value given as % [2]: 0%
N#Cc1ccc2c(c1)c([C@H]1CC[C@H](N3CCN(c4cccc5[nH]ccc45)CC3)CC1)cn2Cc1ccccc1 [Example 16b, 1-Benzyl-3-{(1,4-trans)-4-[4-(1H-indol-4-yl)-piperazin-1-yl]-cyclohexyl}-1H-indole-5-carbonitrile]	–	–	ST, % 100 nM (serotonin transporter; 100 nM): 25%; 5-HT1A, % @ 100 nM ([2]; 100 nM): 0% @
Cn1ccc2c(N3CCN([C@H]4CC[C@@H](c5cn(C)c6ccc(C#N)cc65)CC4)CC3)cccc21 [Example 17, 1-Methyl-3-{(1,4-cis)-4-[4-(1-methyl-1H-indol-4-yl)-piperazin-1-yl]-cyclohexyl}-1H-indole-5-carbonitrile]	2.5 nM	–	5-HT1A, value given as % [2]: 0%
COc1ccccc1C1CCN([C@H]2CC[C@@H](c3c[nH]c4ccc(F)cc43)CC2)CC1 [Example 19a, 5-Fluoro-3-{(1,4-cis)-4-[4-(2-methoxy-phenyl)-piperidin-1-yl]-cyclohexyl}-1H-indole]	5.72 nM	264 nM	–
Fc1ccc2[nH]cc([C@H]3CC[C@@H](N4CCN(c5cccc6c5OCCO6)CC4)CC3)c2c1 [Example 24a, 3-{(1,4-cis)-4-[4-(2,3-Dihydro-benzo[1,4]dioxin-5-yl)-piperazin-1-yl]-cyclohexyl}-5-fluoro-1H-indole]	6.9 nM	65.7 nM	Emax [1]: 81%
Fc1ccc2[nH]cc([C@H]3CC[C@H](N4CCN(c5cccc6c5OCCO6)CC4)CC3)c2c1 [Example 24b, 3-{(1,4-trans)-4-[4-(2,3-Dihydro-benzo[1,4]dioxin-5-yl)-piperazin-1-yl]-cyclohexyl}-5-fluoro-1H-indole]	36 nM	11.3 nM	–
Fc1ccc2c(c1)[nH]cc2[C@H]1CC[C@@H](N2CCN(c3cccc4c3OCCO4)CC2)CC1 [Example 25a, 3-{(1,4-cis)-4-[4-(2,3-Dihydro-benzo[1,4]dioxin-5-yl)-piperazin-1-yl]-cyclohexyl}-6-fluoro-1H-indole]	63 nM	67.7 nM	Emax [1]: 0%
Cn1cc([C@H]2CC[C@@H](N3CCN(c4cccc5cccnc45)CC3)CC2)c2cc(F)ccc21 [Example 28, 8-{4-(1,4-cis)-4-[4-(5-Fluoro-1-methyl-1H-indol-3-yl)-cyclohexyl]-piperazin-1-yl}-quinoline]	2.02 nM	25.1 nM	–
N#Cc1ccc2[nH]cc([C@H]3CC[C@@H](N4CCN(c5cccc6cccnc56)CC4)CC3)c2c1 [Example 29a, 3-[(1,4-cis)-4-(4-Quinolin-8-yl-piperazin-1-yl)-cyclohexyl]-1H-indole-5-carbonitrile]	2.25 nM	–	Emax [1]: 0%
Cn1cc([C@H]2CC[C@@H](N3CCN(c4cccc5cccnc45)CC3)CC2)c2cc(C#N)ccc21 [Example 30, 1-Methyl-3-[(1,4-cis)-4-(4-quinolin-8-yl-piperazin-1-yl)-cyclohexyl]-1H-indole-5-carbonitrile]	1.25 nM	24.5 nM	Emax [1]: 95%
Fc1cc2c(c(N3CCN([C@H]4CC[C@@H](c5c[nH]c6ccc(F)cc65)CC4)CC3)c1)OCCC2 [Example 31a, 5-Fluoro-3-{(1,4-cis)-4-[4-(6-fuoro-chroman-8-yl)-piperazin-1-yl]-cyclohexyl}-1H-indole]	13 nM	142 nM	–
Fc1cc2c(c(N3CCN([C@H]4CC[C@@H](c5c[nH]c6ccc(F)cc65)CC4)CC3)c1)OCC2 [Example 32a, 5-Fluoro-3-{(1,4-cis)-4-[4-(5-fluoro-2,3-dihydro-benzofuran-7-yl)-piperazin-1-yl]-cyclohexyl}-1H-indole]	14 nM	246 nM	–
Fc1cc2c(c(N3CCN([C@H]4CC[C@H](c5c[nH]c6ccc(F)cc65)CC4)CC3)c1)OCC2 [Example 32b, 5-Fluoro-3-{(1,4-trans)-4-[4-(5-fluoro-2,3-dihydro-benzofuran-7-yl)-piperazin-1-yl]-cyclohexyl}-1H-indole]	–	49.1 nM	–
N#Cc1ccc2[nH]cc([C@H]3CC[C@@H](N4CCN(c5cc(F)cc6c5OCC6)CC4)CC3)c2c1 [Example 33a, 3-{(1,4-cis)-4-[4-(5-Fluoro-2,3-dihydro-benzofuran-7-yl)-piperazin-1-yl]-cyclohexyl}-1H-indole-5-carbonitrile]	1.9 nM	98.9 nM	–
N#Cc1ccc2[nH]cc([C@H]3CC[C@H](N4CCN(c5cc(F)cc6c5OCC6)CC4)CC3)c2c1 [Example 33b, 3-{(1,4-trans)-4-[4-(5-Fluoro-2,3-dihydro-benzofuran-7-yl)-piperazin-1-yl]-cyclohexyl}-1H-indole-5-carbonitrile]	45 nM	19.2 nM	–
Cn1cc([C@H]2CC[C@@H](N3CCN(c4cc(F)cc5c4OCC5)CC3)CC2)c2cc(C#N)ccc21 [Example 33c, 3-{(1,4-cis)-4-[4-(5-Fluoro-2,3-dihydro-benzofuran-7-yl)-piperazin-1-yl]-cyclohexyl}-1-methyl-1H-indole-5-carbonitrile]	7.1 nM	431 nM	–
N#Cc1ccc2[nH]cc([C@H]3CC[C@@H](N4CCN(c5cccc6ccoc56)CC4)CC3)c2c1 [Example 34a]	1.49 nM	185 nM	–
N#Cc1ccc2[nH]cc([C@H]3CC[C@H](N4CCN(c5cccc6ccoc56)CC4)CC3)c2c1 [Example 34b]	17 nM	8.37 nM	–
Cn1cc([C@H]2CC[C@@H](N3CCN(c4cccc5[nH]ccc45)CC3)CC2)c2cc(F)ccc21 [Example 38, 5-Fluoro-3-{cis-4-[4-(1H-indol-4-yl)-piperazinyl]-cyclohexyl}-1-methyl-1H-indole]	7.22 nM	124 nM	–
COc1cc(N2CCN([C@H]3CC[C@@H](c4c[nH]c5ccc(C#N)cc54)CC3)CC2)c2ncccc2c1 [Example 44c, 3-{(1,4-cis)-4-[4-(6-Methoxy-quinolin-8-yl)-piperazin-1-yl]-cyclohexyl}-1H-indole-5-carbonitrile]	1.5 nM	21 nM	–
